Source: patent EP0461039B1, “Benzimidazole derivatives, process and intermediates for their preparation, their use as medicaments and pharmaceutical compositions containing them” (HOECHST MARION ROUSSEL, priority 1990, dated 1991)

Assays:
[1] = biological target: T1, récepteur de l'angiotensine II (Rattus norvegicus, UniProt P25095); assay: Angiotensin II receptor binding test (displacement of 125I angiotensin II, rat liver membranes); conditions: fresh rat liver membrane preparation, incubation at 25°C for 150 minutes, read-out: CI50 (the source's name)
T1 construct: une préparation membranaire fraîche obtenue à partir de foie de rat; from tissue; host or cells: rat liver membranes
T1 sequence (P25095 1-359): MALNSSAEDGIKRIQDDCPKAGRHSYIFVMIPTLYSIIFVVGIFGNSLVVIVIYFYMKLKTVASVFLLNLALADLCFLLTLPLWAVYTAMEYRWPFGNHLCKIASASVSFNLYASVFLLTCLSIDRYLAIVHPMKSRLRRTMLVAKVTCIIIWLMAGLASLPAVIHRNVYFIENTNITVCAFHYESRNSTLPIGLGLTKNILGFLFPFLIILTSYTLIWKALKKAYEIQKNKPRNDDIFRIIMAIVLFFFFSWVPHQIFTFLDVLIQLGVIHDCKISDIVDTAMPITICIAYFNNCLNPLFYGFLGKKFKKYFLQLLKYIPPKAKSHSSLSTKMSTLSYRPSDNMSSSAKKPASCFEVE
Method: On utilise une préparation membranaire fraîche obtenue à partir de foie de rat. Le tissu est broyé au polytron dans un tampon Tris 50 mM pH 7,4 le broyage est suivi de 3 centrifugations à 30 000 g 15' avec reprises intermédiaires des culots dans le tampon Tris pH 7,4.
Les derniers culots sont remis en suspension dans un tampon d'incubation (Tris 20 mM, NaCl 135 mM, KCl 10 mM, glucose 5 mM, MgCl2 10 mM, fluorure de phényl méthyl sulfonyle 0,3 mM, bacitracine 0,1 mM, bis(triméthylsilyl) acétamide 0,2 %).
On répartit des fractions aliquotes de 2 ml dans des tubes à hémolyse et ajoute de la ^125I angiotensine II (25 000 DPM/tube) et le produit à étudier. (Le produit est d'abord testé à 3 x 10^-5M en triple). Lorsque le produit testé déplace de plus de 50 % la radioactivité liée spécifiquement au récepteur, il est testé à nouveau selon une gamme de 7 concentrations afin de déterminer la concentration qui inhibe de 50 % la radioactivité liée spécifiquement au récepteur. On détermine ainsi la concentration inhibitrice 50 %).
La liaison non spécifique est déterminée par addition d'un produit de référence soit le produit de l'exemple 94 du brevet européen 0253310 à 10^-5M (en triple). On incube à 25°C pendant 150 minutes, remet au bain-marie à 0°C, 5 minutes, filtre sous vide, rince au tampon Tris pH 7,4 et compte la radioactivité en présence du scintillant Triton. […]

[2] = test system: angiotensine II sur la veine porte isolée; assay: Angiotensin II antagonist activity on the isolated portal vein; assay type: cell-based, rats mâles Wistar; conditions: rat portal vein ring, angiotensin II 3.10^-8M, compound added 15 minutes before stimulation, verapamil 1.10^-6M in the bath; read-out: CI50 (the source's name)
Method: La veine porte est prélevée, sur des rats mâles Wistar (350 g environ) (IFFA Crédo Franc) après dislocation cervicale, et mise rapidement dans une solution physiologique (voir ci-dessous) à température ambiante. Un anneau de 1 mm environ est monté dans un bain à organe isolé contenant 20 ml de la solution physiologique suivante (composition en mM : NaCl 118,3 - KCl 4,7 - MgSO4 1,2 - KH2PO4 1,2 - NaHCO3 25 - glucose 11,1 - CaCl2 2,5) le milieu est maintenu à 37°C et oxygéné par un mélange O2 95 %, CO2 5 %. La tension initiale imposée est de 1 g, les anneaux sont laissés au repos pendant 60 à 90 minutes. Afin d'éviter les contractions spontanées, du vérapamil est ajouté au bain d'incubation (1.10^-6M).
A la fin de la période de repos l'angiotensine II (hypertensine Ciba) 3.10^-8M est ajoutée dans le bain d'incubation et laissée au contact de la préparation pendant 1 minute. Cette opération est répétée chaque 30 minutes, le tissu étant lavé 3 ou 4 fois entre deux stimulations à l'angiotensine. Le composé à étudier est introduit dans le bain 15 minutes avant une nouvelle stimulation par l'angiotensine. Des concentrations croissantes de la molécule étant appliquées, une CI50 (concentration qui produit une inhibition de 50 % de la réponse à l'angiotensine) peut être calculée, celle-ci est exprimée en nanomoles.

**Q.** With `CCCCc1nc2cccc(C(=O)O)c2n1Cc1ccc(-c2ccccc2C(=O)O)cc1` [Exemple 2, Acide 2-butyl 1-[(2'-carboxybiphényl-4-yl)méthyl] 1H-benzimidazole-7-carboxylique] as the compound, how does the IC50 [1] read?
**A.** The IC50 was 0.052 µM.

**Q.** And the IC50 [2]?
**A.** The IC50 was 0.0095 µM.
